In patent US8815535B2, “Disk diffusion assay for oritavancin” (The Medicines Company, priority 2011, dated 2014):
Like-named read-outs stand apart in the source and are kept apart here.

Test system: VISA Mu50 (ATCC 700699)
Experiment: Disk diffusion assay (zone of inhibition)
Format: cell-based, Staphylococcus aureus
Settings: for zone of inhibition at 360 µg/disc: ATCC 700699
Description: The study was designed to identify conditions that improve oritavancin diffusion in agar and consequently yield a zone diameter ≧15 mm for the CLSI quality control strain MSSA ATCC 25923. Excipients that increased the disk diffusion of oritavancin in agar relative to disks containing only oritavancin were identified and selected for further study. […] A prediffusion step at room temperature was introduced to maximize oritavancin diffusion prior to initiation of bacterial growth. […] Plates were then incubated overnight at 37° C. Zone diameters around the disks in which bacterial growth was inhibited were measured with a ruler and reported in millimeters.
Ethanol-sterilized Whatman paper disks (6 mm diameter) were allowed to dry then impregnated with 20 microliters of oritavancin solution containing total amounts ranging from 90 to 360 micrograms. Disks were allowed to dry at room temperature for various times prior to use.
Bacterial suspensions were prepared and adjusted to an optical density of 0.1 at 600 nm. Standard cation-adjusted Mueller Hinton agar plates (90 mm diameter) were seeded with bacterial suspensions by initially swabbing the center of plate then moving outward towards the edge. The plate was swabbed a second time, perpendicular to the orientation of the first swab. […] After 3 hours, two additional disks were placed on the other half of the plate then the plate was incubated overnight at 37° C. Zone diameters were measured with a ruler and reported in millimeters.
Oritavancin powder was dissolved in freshly-prepared solutions of the indicated excipients at concentrations of 0.625, 1.25, 2.5, 5, and 10 mg/ml (adjusted for potency based on lot 875561L00 purity of 83.1%) by vortexing for a minimum of 5 minutes. Oritavancin solutions in the various excipients, while not visually clear, were free from any apparent particulates as assessed visually. Sterile Oxoid blank disks were impregnated with 20 μl of these oritavancin solutions, resulting in oritavancin disk loads ranging from 12.5 to 200 μg. Unless indicated otherwise, disks were allowed to dry overnight at room temperature prior to use.
Bacterial suspensions from isolated colonies on overnight cation-adjusted Mueller Hinton agar plates were prepared in sterile saline and adjusted to an optical density of 0.1 at 600 nm Standard cation-adjusted Mueller Hinton agar plates (90 mm diameter) were seeded with bacterial suspensions by initially swabbing the center of plate then moving outward. Swabbing was continued at a right angle and then at an oblique angle to the first and second swabs. Disks were placed upon the seeded plates with sterile forceps. Plates were then incubated overnight at 37° C. and inhibition zone diameters were measured with a ruler and reported in millimeters.

CN[C@H](CC(C)C)C(=O)N[C@H]1C(=O)N[C@@H](CC(N)=O)C(=O)N[C@H]2C(=O)N[C@H]3C(=O)N[C@H](C(=O)N[C@H](C(=O)O)c4cc(O)cc(O)c4-c4cc3ccc4O)[C@H](O[C@H]3C[C@](C)(N)[C@@H](O)[C@H](C)O3)c3ccc(c(Cl)c3)Oc3cc2cc(c3O[C@@H]2O[C@H](CO)[C@@H](O)[C@H](O)[C@H]2O[C@H]2C[C@](C)(NCc3ccc(-c4ccc(Cl)cc4)cc3)[C@@H](O)[C@H](C)O2)Oc2ccc(cc2Cl)[C@H]1O [oritavancin, N-(4-(4-chlorophenyl)benzyl)A82846B]
Inhibition zone diameter (Mu50, 12.5 μg in 4% P80/Span 80 (1:1), calcium alginate swab, dried overnight): no zone
Inhibition zone diameter (Mu50, 12.5 μg in 4% P80/Span 80 (1:1), cotton swab, dried overnight, estimate of diameter): no zone
Inhibition zone diameter (Mu50, 25 μg (20 μl of 1.25 mg/ml) in 4% P80/Span 80 (1:1), calcium alginate swab, dried overnight): no zone
Inhibition zone diameter (Mu50, 20 μl of 1.25 mg/ml oritavancin in 5% Brij 30): no zone
zone of inhibition at 360 µg/disc (Staphylococcus aureus, 3 h, 360 μg oritavancin, excipient 10% HPCD, disks made same day, 3 h prediffusion, average of 2 disks, read-out: Average zone diameter): 17.3 mm
zone of inhibition at 360 µg/disc (Staphylococcus aureus, 192 h, 360 μg in 5% P80, Experiment 2, disks stored 8 days, no prediffusion, read-out: Zone diameter (mm ± SD)): 13 mm
zone of inhibition at 360 µg/disc (Staphylococcus aureus, 336 h, 360 μg in 5% P80, Experiment 1, disks stored 14 days, no prediffusion, read-out: Zone diameter (mm ± SD)): 13.5 ± 0.7 mm
zone of inhibition at 360 µg/disc (Staphylococcus aureus, 360 μg in 5% P80, Average of experiments, no prediffusion, read-out: Zone diameter (mm ± SD)): 13.3 ± 0.5 mm
zone of inhibition at 360 µg/disc (Staphylococcus aureus, 360 μg in 5% P80, Average of experiments, prediffusion, read-out: Zone diameter (mm ± SD)): 14.3 ± 0.3 mm
zone of inhibition at 360 µg/disc (Staphylococcus aureus, 360 μg in 5% P80, Experiment 1, disks stored 14 days, 3 h prediffusion at room temperature, read-out: Zone diameter (mm ± SD)): 14.5 mm
zone of inhibition at 360 µg/disc (Staphylococcus aureus, 360 μg in 5% P80, Experiment 2, disks stored 8 days, 3 h prediffusion at room temperature, read-out: Zone diameter (mm ± SD)): 14 mm
zone of inhibition at 360 µg/disc (Staphylococcus aureus, 360 μg oritavancin, excipient 5% P80, disks stored 5 days at room temperature, 3 h prediffusion, average of 2 disks, read-out: Average zone diameter): 15 mm
zone of inhibition at 25 µg/disc (Staphylococcus aureus, Mu50, 25 μg in 4% P80/Span 80 (1:1), cotton swab, dried overnight, estimate of diameter): 7 mm
zone of inhibition at 50 µg/disc (Staphylococcus aureus, Mu50, 50 μg in 4% P80/Span 80 (1:1), calcium alginate swab, dried overnight, read-out: Inhibition zone diameter): 7 mm
zone of inhibition at 50 µg/disc (Staphylococcus aureus, Mu50, 50 μg in 4% P80/Span 80 (1:1), cotton swab, dried overnight, estimate of diameter): 10 mm
zone of inhibition at 50 µg/disc (Staphylococcus aureus, Mu50, 50 μg, 4% P80/Span 80 ratio 50:50, dried overnight, estimate of diameter): 10 mm
zone of inhibition at 50 µg/disc (Staphylococcus aureus, Mu50, 50 μg, 4% P80/Span 80 ratio 60:40, dried overnight, estimate of diameter): 11 mm
zone of inhibition at 50 µg/disc (Staphylococcus aureus, Mu50, 50 μg, 4% P80/Span 80 ratio 70:30, dried overnight, estimate of diameter): 12 mm
zone of inhibition at 50 µg/disc (Staphylococcus aureus, Mu50, 50 μg, 4% P80/Span 80 ratio 80:20, dried overnight, estimate of diameter): 12 mm
zone of inhibition at 50 µg/disc (Staphylococcus aureus, Mu50, 50 μg, 4% P80/Span 80 ratio 90:10, dried overnight, estimate of diameter): 12 mm
zone of inhibition at 100 µg/disc (Staphylococcus aureus, Mu50, 100 μg in 4% P80/Span 80 (1:1), calcium alginate swab, dried overnight, read-out: Inhibition zone diameter): 8 mm
